The values that follow come from patent US7037917B2, “HIV replication inhibiting pyrimidines” (Janssen Pharmaceutica, N.V., priority 1998, dated 2006).

Where a name gives a salt, the structure may show the parent alone. Read-outs that look alike come from different tables or passages of the source. Some results are limits rather than exact numbers.

A short description of data set [1]: cytotoxicity in mock-infected MT-4 cells (MTT). In kind it is cell-based. The note with it: human, mock-infected MT-4 cells; concentration reducing absorbance of mock-infected MT-4 control by 50%; MTT.
Data set [2] concerns mock-infected MT-4 cells. Briefly: cytotoxicity in mock-infected MT-4 cells (MTT). In kind it is cell-based.
Data set [3] relates to HIV-1.
Method: (§1) A rapid, sensitive and automated assay procedure was used for the in vitro evaluation of anti-HIV agents. […] Inhibition of the HIV-induced cytopathic effect was used as the end point. […] The percent protection achieved by the compound in HIV-infected cells was calculated by the following formula:
(§2) [formula] whereby (ODT)HIV is the optical density measured with a given concentration of the test compound in HIV-infected cells; (ODC)HIV is the optical density measured for the control untreated HIV-infected cells; (ODC)MOCK is the optical density measured for the control untreated mock-infected cells; all optical density values were determined at 540 nm. […] The ratio of CC50 to IC50 was defined as the selectivity index (SI).
The subject of data set [4] is HIV-1. Description: microbe, parasite or virus in culture. The note with it: Human immunodeficiency virus 1, MT4.
Method: as §1, §2

As for `Cc1cc(C#N)cc(C)c1Oc1nc(Nc2ccc(C#N)cc2)nc(NCCN2CCCC2)c1Br.Cl`, the melting point lay within 208 to 210 °C.
The same measure, in the same setting: next, `Cc1cc(C)c(Nc2nc(Nc3ccc(C#N)cc3)ncc2N)c(C)c1` (as salt: trifluoroacetate) [Compound 51, 4-[[5-amino-4-[(2,4,6-trimethylphenyl)amino]-2-pyrimidinyl]amino]benzonitrile]: 224 to 225 °C.
The same measure, in the same setting: as for `C=Cc1cnc(Nc2ccc(C#N)cc2)nc1Nc1c(C)cc(C)cc1C` (as salt: trifluoroacetate) [Compound 54, 4-[[5-ethenyl-4-[(2,4,6-trimethylphenyl)amino]-2-pyrimidinyl]amino]benzonitrile], the figure is 237 to 242 °C.
On to `Cc1cc(C)c(Nc2ncc(Cl)c(Nc3ccc(C#N)cc3)n2)c(C)c1` [Compound 1, 4-[[5-chloro-2-[(2,4,6-trimethylphenyl)amino]-4-pyrimidinyl]amino]benzonitrile], for which the CC50 in data set [1] amounted to 10.9 µM.
Same read-out and setting: as for `Cc1cc(C)c(Nc2ncc(Br)c(Nc3ccc(C#N)cc3)n2)c(C)c1` [Compound 2, 4-[[5-bromo-2-[(2,4,6-trimethylphenyl)amino]-4-pyrimidinyl]amino]benzonitrile], the figure is 82.6 µM.
On the same count and under the same terms, as for `Cc1cc(C)c(Nc2nc(Nc3ccc(C#N)cc3)ncc2Br)c(C)c1` [Compound 3, 4-[[5-bromo-4-[(2,4,6-trimethylphenyl)amino]-2-pyrimidinyl]amino]benzonitrile], the figure is 4.4 µM.
Same read-out and setting: as for `Cc1cc(C)c(Nc2nc(Nc3ccc(C#N)cc3)nc(N)c2Cl)c(C)c1.O=C(O)C(F)(F)F` [Compound 4, 4-[[4-amino-5-chloro-6-[(2,4,6-trimethylphenyl)amino]-2-pyrimidinyl]amino]benzonitrile trifluoroacetate (1:1)], the figure is 10 µM; as for `Cc1cc(C)c(Nc2nc(Nc3ccc(C#N)cc3)ncc2Cl)c(C)c1` [Compound 5, 4-[[5-chloro-4-[(2,4,6-trimethylphenyl)amino]-2-pyrimidinyl]amino]benzonitrile], 0.4 µM; as for `Cc1cc(C)c(Oc2nc(Nc3ccc(C#N)cc3)ncc2Cl)c(C)c1` [Compound 6, 4-[[5-chloro-4-(2,4,6-trimethylphenoxy)-2-pyrimidinyl]amino]benzonitrile], above 100 µM.
`Cc1cc(C)c(Sc2nc(Nc3ccc(C#N)cc3)ncc2Cl)c(C)c1` [Compound 7]: the CC50 in data set [2] is above 100 µM.
The same measure, in the same setting: next, `Cc1cc(Br)cc(C)c1Oc1nc(Nc2ccc(C#N)cc2)ncc1Cl` [Compound 8]: above 100 µM; `Cc1cc(Br)cc(C)c1Nc1nc(Nc2ccc(C#N)cc2)ncc1Cl` [Compound 9]: 1.2 µM.
Consider `Cc1cc(Br)c(Nc2nc(Nc3ccc(C#N)cc3)ncc2Cl)c(Br)c1` [Compound 10, 4-[[5-chloro-4-[(2,6-dibromo-4-methylphenyl)amino]-2-pyrimidinyl]amino]benzonitrile], for which the midpoint of cytotoxicity in data set [1], the CC50, lay at 0.4 µM.
In data set [2], `N#Cc1ccc(Nc2ncc(Cl)c(Nc3c(F)cc(Br)cc3Br)n2)cc1` [Compound 11] showed a CC50 of 0.4 µM.
Same read-out and setting: next, `Cc1cc(C(C)(C)C)cc(C)c1Nc1nc(Nc2ccc(C#N)cc2)ncc1Cl` [Compound 12]: 48.5 µM; `Cc1cc(C#N)cc(C)c1Nc1nc(Nc2ccc(C#N)cc2)ncc1Cl` [Compound 13]: 0.4 µM.
On the same count and under the same terms, as for `Cc1cc(Br)cc(Cl)c1Oc1nc(Nc2ccc(C#N)cc2)ncc1Cl` [Compound 15], the figure is above 100 µM.
Same read-out and setting: as for `Cc1cc(Cl)cc(C)c1Oc1nc(Nc2ccc(C#N)cc2)ncc1Cl` [Compound 16], the figure is above 100 µM.
As for `Cc1cc(C#N)cc(C)c1Oc1nc(Nc2ccc(C#N)cc2)ncc1Br` [Compound 17, 4-[[5-bromo-4-(4-cyano-2,6-dimethylphenoxy)-2-pyrimidinyl]amino]benzonitrile], the CC50 in data set [1] is above 10 µM.
`Cc1cc(C#N)cc(C)c1Oc1nc(Nc2ccc(C#N)cc2)ncc1Cl` [Compound 18] registered a CC50 in data set [2] above 10 µM.
As for `Cc1cc(C)c(Nc2nc(Nc3ccc(C#N)cc3)nc(Cl)c2Br)c(C)c1` [Compound 41, 4-[[5-bromo-4-chloro-6-[(2,4,6-trimethylphenyl)amino]-2-pyrimidinyl]amino]benzonitrile], the melting point was 220 to 221 °C.
In the case of `Cc1cc(C#N)cc(C)c1Nc1nc(Nc2ccc(C#N)cc2)nc(Cl)c1Br` [Compound 42, 4-[[5-bromo-4-chloro-6-[(4-cyano-2,6-dimethylphenyl)amino]-2-pyrimidinyl]amino]benzonitrile], the melting point lay within 259 to 260 °C.
Same read-out and setting: as for `Cc1cc(C#N)cc(C)c1Oc1nc(Nc2ccc(C#N)cc2)nc(C)c1Br` [Compound 44, 4-[[5-bromo-4-(4-cyano-2,6-dimethylphenoxy)-6-methyl-2-pyrimidinyl]amino]benzonitrile], the figure is 260 to 262 °C; as for `Cc1cc(C#N)cc(C)c1Nc1nc(Nc2ccc(C#N)cc2)ncc1Br` [Compound 45, 4-[[5-bromo-6-[(4-cyano-2,6-dimethylphenyl)amino]-2-pyrimidinyl]amino]benzonitrile], 277 to 280 °C.
In turn, `Cc1cc(C#N)cc(C)c1Oc1nc(Nc2ccc(C#N)cc2)nc(N)c1Br` [Compound 46, 4-[[4-amino-5-bromo-6-(4-cyano-2,6-dimethylphenyloxy)-2-pyrimidinyl]amino]benzonitrile] came in with a CC50 in data set [1] above 200 µM.
Consider `CONc1nc(Nc2ccc(C#N)cc2)nc(Oc2c(C)cc(C#N)cc2C)c1Br` [Compound 48, 4-[[5-bromo-4-(4-cyano-2,6-dimethylphenoxy)-6-(methoxyamino)-2-pyrimidinyl]amino]benzonitrile], for which the melting point lay within 185 to 186 °C.
For `Cc1cc(C#N)cc(C)c1Oc1nc(Nc2ccc(C#N)cc2)ncc1N` [Compound 50, 4-[[5-amino-4-(4-cyano-2,6-dimethylphenoxy)-2-pyrimidinyl]amino]benzonitrile], the melting point is above 300 °C.
Same read-out and setting: next, `C#Cc1cnc(Nc2ccc(C#N)cc2)nc1Nc1c(C)cc(C)cc1C` [Compound 52, 4-[[5-ethynyl-4-[(2,4,6-trimethylphenyl)amino]-2-pyrimidinyl]amino]benzonitrile]: 165 to 175 °C; `Cc1cc(C)c(Nc2nc(Nc3ccc(C#N)cc3)ncc2-c2ccccc2)c(C)c1` [Compound 53, 4-[[5-phenyl-4-[(2,4,6-trimethylphenyl)amino]-2-pyrimidinyl]amino]benzonitrile]: 209 to 214 °C.
Compound `Cc1cc(C#N)cc(C)c1Oc1nc(N(COC(=O)C(C)(C)C)c2ccc(C#N)cc2)ncc1Br` [Compound 60] showed a CC50 in data set [2] of 74.5 µM. Further, the IC50 in data set [3] (dose achieving 50% protection of HIV-infected MT-4 cells against cytopathic effect, MTT, OD 540 nm) was 0.002 µM.
For `COC(=O)COCC(=O)N(c1ccc(C#N)cc1)c1ncc(Br)c(Oc2c(C)cc(C#N)cc2C)n1` [Compound 61], in data set [1], the CC50 was above 100 µM. In data set [3] (ratio of CC50 to IC50), the “SI (selectivity index)” value is above 52631. This compound gave an IC50 in data set [4] of 0.002 µM.
